Legend:
[1] = tested on: wheat mature dried grain of the cultivar Bobwhite; assay: Effect of D-amino acids on germination of wheat mature dried grain (Bobwhite); format: in vivo, Triticum aestivum; conditions: n = 15
Procedure: (§1) A range of concentrations of the D-amino acids D-serine and D-alanine were tested for effects on wheat regeneration and germination from embryos derived from mature dried grain of the cultivar Bobwhite.

[2] = tested on: wheat embryos derived from mature dried grain of the cultivar Ventura; assay: Effect of D-amino acids on regeneration of wheat from embryos of mature dried grain (Ventura); format: cell-based; conditions: n = 20
[3] = tested on: wheat embryos derived from mature dried grain of the cultivar Bobwhite; assay: Effect of D-amino acids on regeneration of wheat from embryos of mature dried grain (Bobwhite); format: cell-based, Triticum aestivum; conditions: for proportion (%) of explants regenerating after 3 weeks, Average / proportion (%) of explants regenerating after 3 weeks, Experiment number 1 / proportion (%) of explants regenerating after 3 weeks, Experiment number 2 / proportion (%) of explants regenerating after 3 weeks, Experiment number 3: n = 20
Procedure: as §1

[4] = tested on: wheat mature dried grain of the cultivar Ventura; assay: Effect of D-amino acids on germination of wheat mature dried grain (Ventura); format: in vivo; conditions: n = 15
Procedure: [Worded in the source for another variant; this variant is reported under the same test.] as §1

## N[C@H](CO)C(=O)O [D-serine]
[1]; 0.5 mM
  proportion (%) of explants germinated after 1 week, Average: 62%
  proportion (%) of explants germinated after 1 week, Experiment Number 1: 35%
  proportion (%) of explants germinated after 1 week, Experiment Number 2: 70%
  proportion (%) of explants germinated after 1 week, Experiment Number 3: 80%
[1]; 1 mM
  proportion (%) of explants germinated after 1 week, Average: 57%
  proportion (%) of explants germinated after 1 week, Experiment Number 1: 30%
  proportion (%) of explants germinated after 1 week, Experiment Number 2: 80%
  proportion (%) of explants germinated after 1 week, Experiment Number 3: 60%
[1]; 5 mM
  proportion (%) of explants germinated after 1 week, Average: 38%
  proportion (%) of explants germinated after 1 week, Experiment Number 1: 20%
  proportion (%) of explants germinated after 1 week, Experiment Number 2: 70%
  proportion (%) of explants germinated after 1 week, Experiment Number 3: 25%
[1]; 7.5 mM
  proportion (%) of explants germinated after 1 week, Average: 32%
  proportion (%) of explants germinated after 1 week, Experiment Number 1: 10%
  proportion (%) of explants germinated after 1 week, Experiment Number 2: 60%
  proportion (%) of explants germinated after 1 week, Experiment Number 3: 25%
[1]; 10 mM
  proportion (%) of explants germinated after 1 week, Average: 18%
  proportion (%) of explants germinated after 1 week, Experiment Number 1: 0%
  proportion (%) of explants germinated after 1 week, Experiment Number 2: 35%
  proportion (%) of explants germinated after 1 week, Experiment Number 3: 20%
[1]; 30 mM
  proportion (%) of explants germinated after 1 week, Average: 0%
  proportion (%) of explants germinated after 1 week, Experiment Number 1: 0%
  proportion (%) of explants germinated after 1 week, Experiment Number 2: 0%
  proportion (%) of explants germinated after 1 week, Experiment Number 3: 0%
[2]; 0.5 mM
  proportion (%) of explants regenerating after 3 weeks, Average: 10%
  proportion (%) of explants regenerating after 3 weeks, Experiment number 1: 10%
  proportion (%) of explants regenerating after 3 weeks, Experiment number 2: 15%
  proportion (%) of explants regenerating after 3 weeks, Experiment number 3: 5%
[2]; 1 mM
  proportion (%) of explants regenerating after 3 weeks, Average: 7%
  proportion (%) of explants regenerating after 3 weeks, Experiment number 1: 10%
  proportion (%) of explants regenerating after 3 weeks, Experiment number 2: 5%
  proportion (%) of explants regenerating after 3 weeks, Experiment number 3: 5%
[2]; 5 mM
  proportion (%) of explants regenerating after 3 weeks, Average: 5%
  proportion (%) of explants regenerating after 3 weeks, Experiment number 1: 5%
  proportion (%) of explants regenerating after 3 weeks, Experiment number 2: 5%
[2]; 7.5 mM
  proportion (%) of explants regenerating after 3 weeks, Average: 0%
  proportion (%) of explants regenerating after 3 weeks, Experiment number 1: 0%
  proportion (%) of explants regenerating after 3 weeks, Experiment number 2: 0%
  proportion (%) of explants regenerating after 3 weeks, Experiment number 3: 0%
[2]; 10 mM
  proportion (%) of explants regenerating after 3 weeks, Average: 0%
  proportion (%) of explants regenerating after 3 weeks, Experiment number 1: 0%
  proportion (%) of explants regenerating after 3 weeks, Experiment number 2: 0%
  proportion (%) of explants regenerating after 3 weeks, Experiment number 3: 0%
[2]; 30 mM
  proportion (%) of explants regenerating after 3 weeks, Average: 0%
  proportion (%) of explants regenerating after 3 weeks, Experiment number 1: 0%
  proportion (%) of explants regenerating after 3 weeks, Experiment number 2: 0%
  proportion (%) of explants regenerating after 3 weeks, Experiment number 3: 0%
[3]; 0.5 mM
  proportion (%) of explants regenerating after 3 weeks, Average: 28%
  proportion (%) of explants regenerating after 3 weeks, Experiment number 1: 45%
  proportion (%) of explants regenerating after 3 weeks, Experiment number 2: 33%
  proportion (%) of explants regenerating after 3 weeks, Experiment number 3: 5%
[3]; 1 mM
  proportion (%) of explants regenerating after 3 weeks, Average: 23%
  proportion (%) of explants regenerating after 3 weeks, Experiment number 1: 30%
  proportion (%) of explants regenerating after 3 weeks, Experiment number 2: 33%
  proportion (%) of explants regenerating after 3 weeks, Experiment number 3: 5%
[3]; 5 mM
  proportion (%) of explants regenerating after 3 weeks, Average: 8%
  proportion (%) of explants regenerating after 3 weeks, Experiment number 1: 10%
  proportion (%) of explants regenerating after 3 weeks, Experiment number 2: 10%
  proportion (%) of explants regenerating after 3 weeks, Experiment number 3: 5%
[3]; 7.5 mM
  proportion (%) of explants regenerating after 3 weeks, Average: 3%
  proportion (%) of explants regenerating after 3 weeks, Experiment number 1: 0%
  proportion (%) of explants regenerating after 3 weeks, Experiment number 2: 5%
  proportion (%) of explants regenerating after 3 weeks, Experiment number 3: 5%
[3]; 10 mM
  proportion (%) of explants regenerating after 3 weeks, Average: 0%
  proportion (%) of explants regenerating after 3 weeks, Experiment number 1: 0%
  proportion (%) of explants regenerating after 3 weeks, Experiment number 2: 0%
  proportion (%) of explants regenerating after 3 weeks, Experiment number 3: 0%
[3]; 30 mM
  proportion (%) of explants regenerating after 3 weeks, Average: 0%
  proportion (%) of explants regenerating after 3 weeks, Experiment number 1: 0%
  proportion (%) of explants regenerating after 3 weeks, Experiment number 2: 0%
  proportion (%) of explants regenerating after 3 weeks, Experiment number 3: 0%
[3]; regeneration and germination (Tables 4 and 5)
  levels that reduced the regeneration and germination of wheat plants: greater than 7.5 mM
[4]; 0.5 mM
  germination: proportion (%) of explants regenerating after 1 week, Average: 70%
  germination: proportion (%) of explants regenerating after 1 week, Experiment number 1: 65%
  germination: proportion (%) of explants regenerating after 1 week, Experiment number 2: 60%
  germination: proportion (%) of explants regenerating after 1 week, Experiment number 3: 85%
[4]; 1 mM
  germination: proportion (%) of explants regenerating after 1 week, Average: 68%
  germination: proportion (%) of explants regenerating after 1 week, Experiment number 1: 70%
  germination: proportion (%) of explants regenerating after 1 week, Experiment number 2: 70%
  germination: proportion (%) of explants regenerating after 1 week, Experiment number 3: 65%
[4]; 5 mM
  germination: proportion (%) of explants regenerating after 1 week, Average: 53%
  germination: proportion (%) of explants regenerating after 1 week, Experiment number 1: 60%
  germination: proportion (%) of explants regenerating after 1 week, Experiment number 2: 45%
[4]; 7.5 mM
  germination: proportion (%) of explants regenerating after 1 week, Average: 23%
  germination: proportion (%) of explants regenerating after 1 week, Experiment number 1: 15%
  germination: proportion (%) of explants regenerating after 1 week, Experiment number 2: 20%
  germination: proportion (%) of explants regenerating after 1 week, Experiment number 3: 35%
[4]; 10 mM
  germination: proportion (%) of explants regenerating after 1 week, Average: 43%
  germination: proportion (%) of explants regenerating after 1 week, Experiment number 2: 30%
  germination: proportion (%) of explants regenerating after 1 week, Experiment number 3: 55%
[4]; 30 mM
  germination: proportion (%) of explants regenerating after 1 week, Average: 0%
  germination: proportion (%) of explants regenerating after 1 week, Experiment number 1: 0%
  germination: proportion (%) of explants regenerating after 1 week, Experiment number 2: 0%
  germination: proportion (%) of explants regenerating after 1 week, Experiment number 3: 0%

From patent publication US20090191636A1, “Method of Producing Transgenic Graminaceous Cells and Plants” (priority 2006, published 2009)
